Test [1] addresses T1, Lysine-α-ketoglutarate reductase (bifunctional lysine-α-ketoglutarate reductase/saccharopine dehydrogenase) (Mus musculus, UniProt Q99K67).
T1 construct: gene Aass; native bifunctional enzyme, partially purified from liver (15 000 x g supernatant, Blue Trisacryl column)
T1 sequence (Q99K67 28-926): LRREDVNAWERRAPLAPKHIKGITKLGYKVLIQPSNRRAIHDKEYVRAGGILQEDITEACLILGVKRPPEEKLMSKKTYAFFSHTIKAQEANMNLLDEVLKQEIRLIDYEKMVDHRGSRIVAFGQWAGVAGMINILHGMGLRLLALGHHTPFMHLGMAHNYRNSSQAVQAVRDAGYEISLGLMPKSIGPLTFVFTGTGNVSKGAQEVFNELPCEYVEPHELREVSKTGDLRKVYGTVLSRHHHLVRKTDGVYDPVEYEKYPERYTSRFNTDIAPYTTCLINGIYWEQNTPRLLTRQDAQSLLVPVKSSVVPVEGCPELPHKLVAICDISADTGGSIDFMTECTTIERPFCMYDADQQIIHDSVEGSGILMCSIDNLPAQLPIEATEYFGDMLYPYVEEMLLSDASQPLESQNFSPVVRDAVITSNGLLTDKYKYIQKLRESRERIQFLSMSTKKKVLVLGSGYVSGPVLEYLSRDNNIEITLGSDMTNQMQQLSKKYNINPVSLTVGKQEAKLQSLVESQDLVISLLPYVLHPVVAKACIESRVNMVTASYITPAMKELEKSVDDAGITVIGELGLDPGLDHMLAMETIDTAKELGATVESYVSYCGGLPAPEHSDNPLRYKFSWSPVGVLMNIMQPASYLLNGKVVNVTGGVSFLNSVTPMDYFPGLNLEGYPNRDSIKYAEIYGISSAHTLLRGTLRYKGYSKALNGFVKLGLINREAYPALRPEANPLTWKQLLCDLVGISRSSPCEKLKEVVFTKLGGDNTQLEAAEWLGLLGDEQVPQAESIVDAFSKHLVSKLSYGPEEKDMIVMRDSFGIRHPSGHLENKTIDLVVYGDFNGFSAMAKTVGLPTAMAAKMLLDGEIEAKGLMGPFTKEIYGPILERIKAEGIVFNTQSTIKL
The experiment in a line: spectrophotometric enzyme assay (NADPH), partially purified native liver enzyme. In kind it is biochemical. Particulars: 25 mM Hepes pH 8.0, 30°C, 0.15 mM NADPH, 1 mM dithiothreitol, 10 mM lysine, 2 mM α-ketoglutarate.

Test [2] addresses T1, Lysine-α-ketoglutarate reductase (bifunctional lysine-α-ketoglutarate reductase/saccharopine dehydrogenase). Described as above. Type of test: biochemical.

SMILES strings stand for the structures. pKi: −log10 of the molar value.

Results on two compounds are retold here after publication PMC4357467, “A Mouse Model of L-2-Hydroxyglutaric Aciduria, a Disorder of Metabolite Repair” (PLoS ONE, 2015).

As a reminder, the pKi is −log10 of the Ki, conventionally taken in molar units.

For the compound `O=C(O)CC[C@@H](O)C(=O)O` [D-2-hydroxyglutarate], the “spectrophotometric enzyme assay (NADPH), partially purified native liver enzyme” value in test [1] was “almost no inhibition was observed with D-2-hydroxyglutarate”.

As for `O=C(O)CC[C@H](O)C(=O)O` [L-2-hydroxyglutarate], the pKi in test [2] is 3.15.
